# Laboratory results from article PMC9817100, “Preclinical profiles of SKB264, a novel anti-TROP2 antibody conjugated to topoisomerase inhibitor, demonstrated promising antitumor efficacy compared to IMMU-132” (Frontiers in Oncology, 2022).
# How the values were obtained:
# BXPC3 (TROP2+) = experiment: cytotoxic assay (CellTiter-Glo, 72 h) BxPC-3; type: cell-based; conditions: Homo sapiens, read-out: IC50 cell growth inhibition
# Experimental: (§1) Tumor cells were seeded on 96-well plates at the following concentrations: HCC1806 (3,000 cells per well), NCI-N87 (5,000 cells per well), BxPC-3 (2,000 cells per well), Calu-3 (8,000 cells per well), NCI-H23 (TROP2+, 3,000 cells per well), and NCI-H23 (parental, 3,000 cells per well). After overnight incubation, the diluted testing items were added respectively. After 72 h, cell viability was evaluated using a CellTiter-Glo Luminescent Cell Viability Assay (Promega Corp. Madison, WI), following the manufacturer’s instruction.
# Calu-3 (TROP2+) = experiment: cytotoxic assay (CellTiter-Glo, 72 h) Calu-3; type: cell-based; conditions: Homo sapiens, read-out: IC50 cell growth inhibition
# Experimental: as §1
# HCC1806 xenograft = experiment: PK-PD study, single dose, HCC1806 xenograft; type: in vivo, BALB/c nude mice; conditions: tumor; payload after single i.v. 3 mg/kg SKB264 (KL610023) or IMMU-132 (SN-38); HCC1806 tumor-bearing mice; mean, n = 5
# Experimental: Phoenix WinNonlin 8.1 was used to calculate the PK parameters in the non-compartment model, including t 1/2, T max, C max, AUC0-t, and AUC0-∞. […] The half maximal effective concentration (EC50) and half maximal inhibitory concentration (IC50) were calculated using a nonlinear regression model with sigmoidal fitting. The in vitro antitumor activities of drugs were evaluated by a two-tailed paired t-test.
# NCI-N87 (TROP2+) = experiment: cytotoxic assay (CellTiter-Glo, 72 h) NCI-N87; type: cell-based; conditions: Homo sapiens, read-out: IC50 cell growth inhibition
# Experimental: as §1
# DNA topoisomerase I = biological target: T1, DNA topoisomerase I (Homo sapiens, UniProt P11387); experiment: topoisomerase I-mediated DNA relaxation assay (cell-free); type: biochemical; conditions: read-out: DNA topoisomerase I inhibition (IC50)
# T1 sequence (P11387 1-765): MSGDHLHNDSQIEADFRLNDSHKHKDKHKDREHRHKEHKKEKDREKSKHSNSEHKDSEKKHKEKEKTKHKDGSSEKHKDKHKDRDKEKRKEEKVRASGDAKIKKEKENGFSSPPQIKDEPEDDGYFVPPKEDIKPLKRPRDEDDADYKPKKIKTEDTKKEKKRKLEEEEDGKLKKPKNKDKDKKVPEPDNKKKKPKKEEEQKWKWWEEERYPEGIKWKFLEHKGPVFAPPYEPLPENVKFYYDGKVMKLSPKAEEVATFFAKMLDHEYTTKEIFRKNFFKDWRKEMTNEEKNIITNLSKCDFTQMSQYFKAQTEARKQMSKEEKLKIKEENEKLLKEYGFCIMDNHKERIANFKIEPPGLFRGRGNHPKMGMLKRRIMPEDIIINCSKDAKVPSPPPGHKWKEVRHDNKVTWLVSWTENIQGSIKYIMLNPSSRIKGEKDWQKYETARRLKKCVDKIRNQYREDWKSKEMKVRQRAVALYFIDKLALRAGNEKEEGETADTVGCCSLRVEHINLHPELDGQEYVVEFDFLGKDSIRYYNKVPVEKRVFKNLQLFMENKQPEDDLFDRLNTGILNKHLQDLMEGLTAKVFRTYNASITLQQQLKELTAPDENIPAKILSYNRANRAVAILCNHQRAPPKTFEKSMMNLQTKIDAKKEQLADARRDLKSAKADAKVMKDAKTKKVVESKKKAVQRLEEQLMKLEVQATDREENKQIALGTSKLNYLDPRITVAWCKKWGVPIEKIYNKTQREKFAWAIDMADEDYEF
# Description: SKB264 is a TROP2-targeting ADC, which consists of a recombinant humanized anti-TROP2 antibody and a topoisomerase I inhibitor derived from Belotecan (KL610023), integrated together via a sulfonyl pyrimidine-CL2A-carbonate linker. The payload is conjugated with the antibody through irreversible nucleophilic aromatic substitution by tris (2-carboxyethyl) phosphine hydrochloride (TCEP HCl), a reducing agent that can reduce the interchain disulfide bounds. The drug-to-antibody ratio (DAR) of SKB264 was approximately 7.4, which was determined by the reversed-phase chromatography (RPC), and might be the theoretical maximum drug loading number for conventional interchain cysteine conjugation ( Figure 1B ). SKB264 was designed to release payload KL610023 after internalization by TROP2-expressing tumor cells. The inhibitory effect of KL610023 on topoisomerase I was almost similar to that of SN-38, as measured by a topoisomerase I-mediated DNA relaxation assay ( Figure 1C ).
# Figure 1 Structure and characterization of SKB264. […] (B) The distribution of the conjugated drug determined by the reverse-phase chromatography analysis (L-0: Unconjugated light chain, L-1: Light chain conjugated with one payload, H-0: Unconjugated heavy chain, H-1: Heavy chain conjugated with one payload, H-2: Heavy chain conjugated with two payloads, H-3: Heavy chain conjugated with three payloads). […]
# [1] = system: HCC1806, NCI-N87, BxPC3, Calu3, NCI-H23 (TROP2+), NCI-H23 (parental); experiment: cytotoxic assay, range over the six tumor cell lines; type: cell-based; conditions: Homo sapiens, read-out: IC50 values, range over six cell lines
# Experimental: as §1
# To evaluate the effect of SKB264 on tumor cell proliferation, in vitro growth inhibition of cancer cell lines was determined by CellTiter-Glo Luminescent Cell Viability Assay. Cancer cell lines, including HCC1806, NCI-N87, BxPC3, Calu3, and NCI-H23 (TROP2+), highly expressed TROP2, while NCI-H23 (parental) was TROP2-negative ( Figure 3 ). […] NCI-H23 (TROP2+) cells were more sensitive to SKB264 than parental cells (TROP2−). […] Taken together, after SKB264 endocytosed through its interaction with TROP2 on cell surface, the releasing free KL610023 can inhibit tumor cell proliferation.
# [2] = metabolic related experiments (hepatic circulation); conditions: unlike SN-38
structure (smiles),measurement,setting,value
CC[C@@]1(O)C(=O)OCc2c1cc1n(c2=O)Cc2c-1nc1ccccc1c2CCN(C(C)C)S(C)(=O)=O [KL610023],IC50,BXPC3 (TROP2+),6 nM
same,IC50,Calu-3 (TROP2+),1.36 nM
same,AUC0-∞ of payload,HCC1806 xenograft,1949 ng·h/g
same,AUClast of payload,HCC1806 xenograft,1903 ng·h/g
same,IC50,NCI-N87 (TROP2+),2.01 nM
same,IC50,DNA topoisomerase I,700 nM
same,IC50,[1],1.36 to 6 nM
same,hepatic circulation,[2],no hepatic circulation
